Data taken from ChEMBL document CHEMBL3797116, “Modification on the O-glucoside of Sergliflozin-A: A new strategy for SGLT2 inhibitor design” (Bioorg Med Chem Lett, 2016).

Key:
Rattus norvegicus [1] = assay: In vivo hypoglycemic activity in Sprague-Dawley rat assessed as urinary […] glucose level per 200g of animal body weight measured for 0 to 24 hrs at 5 mL/kg, po (reference value: 2.03 +/- 0.34 mg); format: functional, Urine
Rattus norvegicus [2] = assay: In vivo hypoglycemic activity in Sprague-Dawley rat assessed as urinary […] glucose level per 200g of animal body weight measured for 0 to 6 hrs at 5 mL/kg, po; format: functional, Urine
Rattus norvegicus [3] = assay: In vivo hypoglycemic activity in Sprague-Dawley rat assessed as urinary […] glucose level per 200g of animal body weight measured for 6 to 24 hrs at 5 mL/kg, po; format: functional, Urine
Rattus norvegicus [4] = assay: In vivo hypoglycemic activity in Sprague-Dawley rat assessed as urinary […] glucose level per 200g of animal body weight measured for 4 to 8 hrs at 5 mL/kg, po (reference value: 0.14 +/- 0.03 mg); format: functional, Urine
Rattus norvegicus [5] = assay: In vivo hypoglycemic activity in Sprague-Dawley rat assessed as urinary […] glucose level per 200g of animal body weight measured for 12 to 24 hrs at 5 mL/kg, po (reference value: 1.45 +/- 0.28 mg); format: functional, Urine
Rattus norvegicus [6] = assay: In vivo hypoglycemic activity in Sprague-Dawley rat assessed as urinary […] glucose level per 200g of animal body weight measured for 8 to 12 hrs at 5 mL/kg, po (reference value: 0.21 +/- 0.01 mg); format: functional, Urine
[7] = Octanol-phosphate buffer saline partition coefficient, logP of the compound measured after 24 hrs by HPLC method; format: physicochemical
Rattus norvegicus [8] = assay: In vivo hypoglycemic activity in Sprague-Dawley rat assessed as urinary […] glucose level per 200g of animal body weight measured for 0 to 4 hrs at 5 mL/kg, po (reference value: 0.26 +/- 0.04 mg); format: functional, Urine
Rattus norvegicus [9] = assay: In vivo hypoglycemic activity in Sprague-Dawley rat assessed as reduction in urinary […] glucose level per 200g of animal body weight measured for 0 to 24 hrs at 5 mL/kg, po; format: functional, Urine; design: scale not given: the % may be the effect or the level left
[10] = (§1) Metabolic stability in rat liver homogenate assessed as compound hydrolysis at 10 uM after 8 hrs; format: ADME, tissue-based; details: liver homogenate, read-out: Drug degradation
Liver = assay: as §1; format: ADME, tissue-based; details: tissue homogenate, 8 h, 10 µM

Compound	Activity (Rattus norvegicus [1])	Activity (Rattus norvegicus [2])	Activity (Rattus norvegicus [3])	Activity (Rattus norvegicus [4])	Activity (Rattus norvegicus [5])	Activity (Rattus norvegicus [6])	logP at 24 h [7]	Activity (Rattus norvegicus [8])	Activity (Rattus norvegicus [9])	metabolised at 8 h, 10 µM [10]	Stability (Liver)
COc1ccc(Cc2ccccc2O[C@@H]2O[C@H](CO)[C@@H](O)[C@H](O)[C@H]2F)cc1	16 mg	4.9 mg	11 mg								
COc1ccc(Cc2ccccc2O[C@@H]2O[C@H](CO)[C@@H](O)[C@H](O)[C@H]2O)cc1 [SERGLIFLOZIN A]	235.03 mg			34.8 mg	39.44 mg	33.8 mg	1.32	126.99 mg			
COc1ccc(Cc2ccccc2O[C@@H]2O[C@H](CO)[C@@H](O)[C@H](O)[C@H]2OC)cc1	0.27 mg			0.03 mg	0.11 mg	0.02 mg		0.11 mg			
COc1ccc(Cc2ccccc2O[C@@H]2O[C@H](CO)C[C@H](O)[C@H]2O)cc1	11.05 mg			0.68 mg	1.73 mg	0.42 mg		8.21 mg			
COC[C@H]1O[C@@H](Oc2ccccc2Cc2ccc(OC)cc2)[C@H](O)[C@@H](O)[C@@H]1O	73.29 mg			4.11 mg	0.76 mg	7.19 mg		61.23 mg	31%		
COc1ccc(Cc2ccccc2O[C@@H]2O[C@H](CO)[C@@H](O)[C@H](OC)[C@H]2O)cc1	18.67 mg			4.11 mg	0.24 mg	0.65 mg		13.67 mg			
Cc1cc(=O)oc2cc(O[C@@H]3O[C@H](CO)[C@@H](O)[C@H](O)[C@H]3O)ccc12										> 80%	
CO[C@H]1[C@H](O)[C@@H](O)[C@H](Oc2ccc3oc(=O)cc(C)c3c2)O[C@@H]1CO											Stable
COc1ccc(Cc2ccccc2O[C@@H]2O[C@H](CO)[C@@H](OC)[C@H](O)[C@H]2O)cc1	172.94 mg			58.68 mg	0.78 mg	11.01 mg	1.83	102.46 mg	73%		
COc1ccc(Cc2ccccc2O[C@@H]2O[C@H](CO)[C@@H](O)C[C@H]2O)cc1	1.24 mg			0.23 mg	0.44 mg	0.21 mg		0.36 mg			
COc1ccc(Cc2ccccc2O[C@@H]2O[C@H](C)[C@@H](O)[C@H](O)[C@H]2O)cc1	34.91 mg			0.69 mg	0.8 mg	0.07 mg		33.36 mg			
COc1ccc(Cc2ccccc2O[C@@H]2O[C@H](CF)[C@@H](O)[C@H](O)[C@H]2O)cc1	4.52 mg			1.03 mg	1.02 mg	0.13 mg		2.34 mg			
